≈ marks a conversion by molar mass, not a printed value. Like-named read-outs stand apart in the source and are kept apart here.
Tests used:
[1] = test system: Staphylococcus aureus FDA 209P; assay: MIC, serial dilution on nutrient agar; assay type: cell-based; settings: FDA209P; Staphylococcus aureus FDA 209P; nutrient agar, 37°C, 18 hours; read-out: Minimum Inhibitory Concentrations
[2] = test system: Mycobacterium smegmatis ATCC 607; assay: MIC, serial dilution on nutrient agar; assay type: cell-based; settings: Mycolicibacterium smegmatis, ATCC607; Mycobacterium smegmatis ATCC 607; nutrient agar, 37°C, 18 hours; read-out: Minimum Inhibitory Concentrations
[3] = test system: Escherichia coli K-12 ML 1630; assay: MIC, serial dilution on nutrient agar; assay type: cell-based; settings: K12ML1630, 37°C, 18 hours, read-out: Minimum Inhibitory Concentrations
Procedure: (§1) The minimum inhibitory concentrations (mcg/ml) of 1,2'-di-N-[(S)-4-amino-2-hydroxybutyryl]-kanamycin B (abbreviated as 1,2'-AHB-KMB), 1,2'-di-N-[(S)-4-amino-2-hydroxybutyryl]-3',4'-dideoxykanamycin B (abbreviated as 1,2'-AHB-DKB), 1,2'-di-N-DL-isoseryl-3',4'-dideoxykanamycin B (abbreviated as 1,2'-IS-DKB) and 1,2'-di-N-DL-isoseryl-kanamycin B (abbreviated as 1,2'-IS-KMB) against various microorganisms were determined according to serial dilution method using nutrient agar medium at 37°C, the estimation being effected after 18 hours incubation. For comparison, the minimum inhibitory concentrations of kanamycin B (abbreviated as KMB) and 3',4'-dideoxykanamycin B (abbreviated as DKB) were also determined in the same manner as mentioned above.

[4] = test system: Klebsiella pneumoniae PCI 602; assay: MIC, serial dilution on nutrient agar; assay type: cell-based; settings: PCI602; Klebsiella pneumoniae PCI 602; nutrient agar, 37°C, 18 hours; read-out: Minimum Inhibitory Concentrations
[5] = test system: Klebsiella pneumoniae 22 -3038; assay: MIC, serial dilution on nutrient agar; assay type: cell-based; settings: 223038; Klebsiella pneumoniae 22 -3038; nutrient agar, 37°C, 18 hours; read-out: Minimum Inhibitory Concentrations
Escherichia coli NIHJ = assay: MIC, serial dilution on nutrient agar; assay type: cell-based; settings: Escherichia coli NIHJ; nutrient agar, 37°C, 18 hours; read-out: Minimum Inhibitory Concentrations
Escherichia coli K-12 = assay: MIC, serial dilution on nutrient agar; assay type: cell-based; settings: K12; Escherichia coli K-12; nutrient agar, 37°C, 18 hours; read-out: Minimum Inhibitory Concentrations
[6] = test system: Escherichia coli K-12 ML 1629; assay: MIC, serial dilution on nutrient agar; assay type: cell-based; settings: K12ML1629; Escherichia coli K-12 ML 1629; nutrient agar, 37°C, 18 hours; read-out: Minimum Inhibitory Concentrations
[7] = test system: Escherichia coli K-12 ML 1410; assay: MIC, serial dilution on nutrient agar; assay type: cell-based; settings: K12ML1410; Escherichia coli K-12 ML 1410; nutrient agar, 37°C, 18 hours; read-out: Minimum Inhibitory Concentrations
[8] = test system: Escherichia coli LA290 R55; assay: MIC, serial dilution on nutrient agar; assay type: cell-based; settings: LA290R55, 18 h, read-out: Minimum Inhibitory Concentrations
[9] = test system: Escherichia coli LA290 R56; assay: MIC, serial dilution on nutrient agar; assay type: cell-based; settings: LA290R56, 18 h, read-out: Minimum Inhibitory Concentrations
[10] = test system: Escherichia coli LA290 R64; assay: MIC, serial dilution on nutrient agar; assay type: cell-based; settings: LA290R64, 18 h, read-out: Minimum Inhibitory Concentrations
Escherichia coli W677 = assay: MIC, serial dilution on nutrient agar; assay type: cell-based; settings: Escherichia coli W677; nutrient agar, 37°C, 18 hours; read-out: Minimum Inhibitory Concentrations
[11] = test system: Escherichia coli JR66/W677; assay: MIC, serial dilution on nutrient agar; assay type: cell-based; settings: read-out: Minimum Inhibitory Concentrations
[12] = test system: Pseudomonas aeruginosa A3; assay: MIC, serial dilution on nutrient agar; assay type: cell-based; settings: Pseudomonas aeruginosa A3; nutrient agar, 37°C, 18 hours; read-out: Minimum Inhibitory Concentrations
[13] = test system: Pseudomonas aeruginosa No.12; assay: MIC, serial dilution on nutrient agar; assay type: cell-based; settings: read-out: Minimum Inhibitory Concentrations
[14] = test system: Pseudomonas aeruginosa TI-13; assay: MIC, serial dilution on nutrient agar; assay type: cell-based; settings: TI13; Pseudomonas aeruginosa TI-13; nutrient agar, 37°C, 18 hours; read-out: Minimum Inhibitory Concentrations
[15] = test system: Pseudomonas aeruginosa GN315; assay: MIC, serial dilution on nutrient agar; assay type: cell-based; settings: Pseudomonas aeruginosa GN315; nutrient agar, 37°C, 18 hours; read-out: Minimum Inhibitory Concentrations
[16] = test system: Pseudomonas aeruginosa 99; assay: MIC, serial dilution on nutrient agar; assay type: cell-based; settings: Pseudomonas aeruginosa 99; nutrient agar, 37°C, 18 hours; read-out: Minimum Inhibitory Concentrations
[17] = test system: Staphylococcus aureus Smith; assay: MIC, serial dilution on nutrient agar; assay type: cell-based; settings: Staphylococcus aureus Smith; nutrient agar, 37°C, 18 hours; read-out: Minimum Inhibitory Concentrations
[18] = test system: Staphylococcus aureus Terejima; assay: MIC, serial dilution on nutrient agar; assay type: cell-based; settings: Staphylococcus aureus Terejima; nutrient agar, 37°C, 18 hours; read-out: Minimum Inhibitory Concentrations
Sarcina lutea PCI 1001 = assay: MIC, serial dilution on nutrient agar; assay type: cell-based; settings: Micrococcus luteus, PCI1001; Sarcina lutea PCI 1001; nutrient agar, 37°C, 18 hours; read-out: Minimum Inhibitory Concentrations
Bacillus anthracis = assay: microbe, parasite or virus in culture; assay type: cell-based; settings: 18 h, read-out: Minimum Inhibitory Concentrations
[19] = test system: Bacillus subtilis PCI 219; assay: MIC, serial dilution on nutrient agar; assay type: cell-based; settings: PCI219; Bacillus subtilis PCI 219; nutrient agar, 37°C, 18 hours; read-out: Minimum Inhibitory Concentrations
[20] = test system: Bacillus subtilis NRRL B-558; assay: MIC, serial dilution on nutrient agar; assay type: cell-based; settings: NRRLB558; Bacillus subtilis NRRL B-558; nutrient agar, 37°C, 18 hours; read-out: Minimum Inhibitory Concentrations
[21] = test system: Bacillus cereus ATCC 10702; assay: MIC, serial dilution on nutrient agar; assay type: cell-based; settings: ATCC10702; Bacillus cereus ATCC 10702; nutrient agar, 37°C, 18 hours; read-out: Minimum Inhibitory Concentrations
[22] = test system: Corynebacterium bovis 1810; assay: MIC, serial dilution on nutrient agar; assay type: cell-based; settings: Corynebacterium bovis 1810; nutrient agar, 37°C, 18 hours; read-out: Minimum Inhibitory Concentrations
[23] = test system: Shigella dysenteriae JS 11910; assay: MIC, serial dilution on nutrient agar; assay type: cell-based; settings: JS11910, 18 h, read-out: Minimum Inhibitory Concentrations
[24] = test system: Shigella flexneri 4b JS 11811; assay: MIC, serial dilution on nutrient agar; assay type: cell-based; settings: 4BJS11811, 37°C, 18 hours, read-out: Minimum Inhibitory Concentrations
Procedure: as §1

Shigella sonnei JS 11746 = assay: MIC, serial dilution on nutrient agar; assay type: cell-based; settings: JS11746, 37°C, 18 hours, read-out: Minimum Inhibitory Concentrations
Procedure: as §1

Salmonella typhosa T-63 = assay: MIC, serial dilution on nutrient agar; assay type: cell-based; settings: Salmonella enterica, 18 h, read-out: Minimum Inhibitory Concentrations
[25] = test system: Salmonella enteritidis 1891; assay: MIC, serial dilution on nutrient agar; assay type: cell-based; settings: Salmonella enterica; Salmonella enteritidis 1891; nutrient agar, 37°C, 18 hours; read-out: Minimum Inhibitory Concentrations
Proteus vulgaris OX 19 = assay: MIC, serial dilution on nutrient agar; assay type: cell-based; settings: OX19; Proteus vulgaris OX 19; nutrient agar, 37°C, 18 hours; read-out: Minimum Inhibitory Concentrations
[26] = test system: Escherichia coli K-12 ML 1410 R81; assay: MIC, serial dilution on nutrient agar; assay type: cell-based; settings: 18 h, read-out: Minimum Inhibitory Concentrations
drug-resistant bacteria = settings: cited from earlier work
[27] = Escherichia coli JR66/W677, nutrient agar, 37°C, 18 hours
[28] = Pseudomonas aeruginosa No.12, nutrient agar, 37°C, 18 hours

Compound | MIC [1] [µg/mL] | MIC [2] [µg/mL] | MIC [3] [µg/mL] | MIC [4] [µg/mL] | MIC [5] [µg/mL] | MIC (Escherichia coli NIHJ) [µg/mL] | MIC (Escherichia coli K-12) [µg/mL] | MIC [6] [µg/mL] | MIC [7] [µg/mL] | MIC [8] [µg/mL] | MIC [9] [µg/mL] | MIC [10] [µg/mL] | MIC (Escherichia coli W677) [µg/mL] | MIC [12] [µg/mL] | MIC [14] [µg/mL] | MIC [15] [µg/mL] | MIC [16] [µg/mL] | antibacterial activity against the drug-resistant bacteria (drug-resistant bacteria) | other results
NCC(O)C(=O)N[C@@H]1CC[C@@H](CN)O[C@@H]1O[C@H]1[C@H](O)[C@@H](O[C@H]2O[C@H](CO)[C@@H](O)[C@H](N)[C@H]2O)[C@H](NC(=O)C(O)CN)C[C@@H]1N (mixture of isomers) [1,2'-IS-DKB, 1,2'-di-N-DL-isoseryl-3',4'-dideoxykanamycin B] | 1.56 | 1.56 | 6.25 | 3.13 | 12.5 | 6.25 | 6.25 | 6.25 | 6.25 | 6.25 | 6.25 | 6.25 | 3.13 | 6.25 | 12.5 | > 100 | 50 | – | MIC [11, 27]: 12.5 µg/mL; MIC [13, 28]: 25 µg/mL
NCC(O)C(=O)N[C@H]1[C@@H](O[C@H]2[C@H](O)[C@@H](O[C@H]3O[C@H](CO)[C@@H](O)[C@H](N)[C@H]3O)[C@H](NC(=O)C(O)CN)C[C@@H]2N)O[C@H](CN)[C@@H](O)[C@@H]1O (mixture of isomers) [1,2'-IS-KMB, 1,2'-di-N-DL-isoseryl-kanamycin B] | 3.13 | 1.56 | 6.25 | 3.13 | 12.5 | 6.25 | 6.25 | 6.25 | 6.25 | 6.25 | 6.25 | 6.25 | 3.13 | 12.5 | 12.5 | > 100 | 50 | – | MIC [11, 27]: 25 µg/mL; MIC [13, 28]: 25 µg/mL
NCC[C@H](O)C(=O)N[C@@H]1CC[C@@H](CN)O[C@@H]1O[C@H]1[C@H](O)[C@@H](O[C@H]2O[C@H](CO)[C@@H](O)[C@H](N)[C@H]2O)[C@H](NC(=O)[C@@H](O)CCN)C[C@@H]1N [1,2'-AHB-DKB, 1,2'-di-N-[(S)-4-amino-2-hydroxybutyryl]-3',4'-dideoxykanamycin B] | 0.78 (≈ 1.19 µM) | 0.2 (≈ 0.306 µM) | 3.13 (≈ 4.79 µM) | 0.78 (≈ 1.19 µM) | 1.56 (≈ 2.39 µM) | 3.13 (≈ 4.79 µM) | 1.56 (≈ 2.39 µM) | 3.13 (≈ 4.79 µM) | 3.13 (≈ 4.79 µM) | 0.78 (≈ 1.19 µM) | 0.78 (≈ 1.19 µM) | 0.78 (≈ 1.19 µM) | 1.56 (≈ 2.39 µM) | 25 (≈ 38.2 µM) | 12.5 (≈ 19.1 µM) | 100 (≈ 153 µM) | 50 (≈ 76.5 µM) | – | MIC [17]: 0.2 µg/mL (≈ 0.306 µM); MIC [18]: < 0.2 µg/mL; MIC (Sarcina lutea PCI 1001): 1.56 µg/mL (≈ 2.39 µM); MIC (Bacillus anthracis): < 0.2 µg/mL; MIC [19]: < 0.2 µg/mL; MIC [20]: 0.2 µg/mL (≈ 0.306 µM); MIC [21]: 1.56 µg/mL (≈ 2.39 µM); MIC [22]: 0.78 µg/mL (≈ 1.19 µM); MIC [23]: 6.25 µg/mL (≈ 9.56 µM); MIC [24]: 6.25 µg/mL (≈ 9.56 µM); MIC (Shigella sonnei JS 11746): 6.25 µg/mL (≈ 9.56 µM); MIC (Salmonella typhosa T-63): 0.78 µg/mL (≈ 1.19 µM); MIC [25]: 1.56 µg/mL (≈ 2.39 µM); MIC (Proteus vulgaris OX 19): 0.78 µg/mL (≈ 1.19 µM); MIC [26]: 1.56 µg/mL (≈ 2.39 µM); MIC ([11]; Escherichia coli, JR66/W677, 18 h): 6.25 µg/mL (≈ 9.56 µM); MIC ([13]; Pseudomonas aeruginosa, NO.12, 18 h): 6.25 µg/mL (≈ 9.56 µM)
NC[C@@H]1CC[C@@H](N)[C@@H](O[C@H]2[C@H](O)[C@@H](O)[C@H](N)C[C@@H]2N)O1 [3',4'-dideoxyneamine] | – | – | – | – | – | – | – | – | – | – | – | – | – | – | – | – | – | improved antibacterial activity | –
NC[C@@H]1CC[C@@H](N)[C@@H](O[C@H]2[C@H](O[C@@H]3O[C@H](CO)[C@@H](O)[C@H]3O)[C@@H](O)[C@H](N)C[C@@H]2N)O1 [3',4'-dideoxyribostamycin] | – | – | – | – | – | – | – | – | – | – | – | – | – | – | – | – | – | improved antibacterial activity | –
CNC[C@H]1O[C@H](O[C@H]2[C@H](O)[C@@H](O[C@H]3O[C@H](CO)[C@@H](O)[C@H](N)[C@H]3O)[C@H](N)C[C@@H]2N)[C@H](N)C[C@@H]1O [3'-deoxy-6'-N-methylkanamycin B] | – | – | – | – | – | – | – | – | – | – | – | – | – | – | – | – | – | improved antibacterial activity | –
NC[C@H]1O[C@H](O[C@H]2[C@H](O)[C@@H](O[C@H]3O[C@H](CO)[C@@H](O)[C@H](N)[C@H]3O)[C@H](N)C[C@@H]2N)[C@H](N)C[C@@H]1O [3'-deoxykanamycin B] | – | – | – | – | – | – | – | – | – | – | – | – | – | – | – | – | – | improved antibacterial activity | –
NC[C@H]1O[C@H](O[C@H]2[C@H](O)[C@@H](O)[C@H](N)C[C@@H]2N)[C@H](N)C[C@@H]1O [3'-deoxyneamine] | – | – | – | – | – | – | – | – | – | – | – | – | – | – | – | – | – | improved antibacterial activity | –
NC[C@H]1O[C@H](O[C@H]2[C@H](O[C@@H]3O[C@H](CO)[C@@H](O)[C@H]3O)[C@@H](O)[C@H](N)C[C@@H]2N)[C@H](N)C[C@@H]1O [3'-deoxyribostamycin] | – | – | – | – | – | – | – | – | – | – | – | – | – | – | – | – | – | improved antibacterial activity | –

— patent publication US3940382A, “1,2'-Di-N-substituted kanamycin B compounds” (Zaidan Hojin Biseibutsu Kagaku Kenkyu Kai, priority 1973, dated 1976)
